Data from patent publication US11773381B2, “Cell penetrating peptide, conjugate comprising same, and composition comprising conjugate” (GemVax & KAEL CO., LTD., priority 2012, dated 2023).

Tested on: HeLa cell
Assay: Cell penetration of pep(CPP)-FITC conjugates in HeLa cell line, flow cytometry (FACS)
Assay type: cell-based, Homo sapiens
Conditions: HeLa cells, 20 μM of each carrier peptide combined with FITC, 37° C. for an hour, control cells treated only FITC
Protocol: Homo sapiens cervix adenocarcinoma cell line as HeLa cell lines were purchased from ATCC (American Type Cell Culture). The cells were cultured in MEM supplemented with 10% fetal bovine serum (Invitrogen, USA), Earle's salts, non-essential amino acids, sodium pyruvate and 100 μg/ml penicillin and 10 units/ml streptomycin and cultured at 37° C., 5% CO2 incubator.
Flow cytometry and Confocal microscope analysis were performed to compare the between degree of cellular uptake of the cells were treated with SEQ ID NO: 1 to SEQ ID NO: 156, pep (CPP) and control.
The cell line was divided in a 6-well plate and cultured in a medium containing 10% fetal bovine serum (Invitrogen, USA), […] at 37° C., 5% CO2 incubator for 12 hours. After washing the cell line with PBS, starvation was induced in a Minimum Essential Medium for an hour. 20 μM of each carrier peptide was treated and cultured at 37° C. for an hour. After repeating the step of washing the cells with PBS for three times, Trypsin-EDTA was treated form 10 mins at 37° C. to separate the carrier peptide on the outside of the cell. cells were collected with refrigerated PBS and centrifugation was performed to repeat the step of washing the cells for three times. After then, the cells were suspended in 0.5 ml of PBS containing 4% Paraformaldehyde and fluorescence of the cells was analyzed using FACS Calibur (Becton Dickinson). The cellular uptake aspect of control and various peptides combined with FITC was compared and analyzed by MFI (Mean Fluorescence Intensity).
Analysis results shown in FIG. 1 to FIG. 23 are given in detail in Table 3 below.

Row | Sequence | cellular uptake, MFI (Mean Fluorescence Intensity)
1 | RKTVVNFPVEDEALGGTAFV (listed as Homo sapiens) [pep95] | 10.92 ± 0.07
2 | NKLFAGIRRDGLLLRLVDDF (listed as Homo sapiens) [pep150] | 17.46 ± 0.24
3 | PYMRQFVAHLQETSPLRDAV (listed as Homo sapiens) [pep146] | 18.32 ± 1.82
4 | SVLNYERAR (listed as Homo sapiens) [pep24] | 13.78 ± 1.07
5 | EARPALLTSRLRFIPKPDGL (listed as Homo sapiens) [pep138] | 16.43 ± 0.91
6 | FLYSSGDKEQLRPSFLLSSL (listed as Homo sapiens) [pep124] | 23.74 ± 3.62
7 | RSLLRSHYREVLPLATFVRR (listed as Homo sapiens) [pep108] | 22.53 ± 0.95
8 | ALFSVLNYERARRPGLLGASVLGLDDIHRA [pep2] | 37.6 ± 1.89
9 | LFSVLNYERARRPGLLGASV (listed as Homo sapiens) [pep83] | 24.57 ± 1.36
10 | MPRAPRCRAVRSLLRSHYRE (listed as Homo sapiens) [pep50] | 2228.76 ± 3.68
11 | TQLSRKLPGTTLTALEAAAN (listed as Homo sapiens) [pep105] | 13.23 ± 2.21
12 | KLQSIGIRQHLKRVQ (listed as Homo sapiens) [pep39] | 21.4 ± 0.99
13 | KTFLRTLVRGVPEYGCVVNL (listed as Homo sapiens) [pep94] | 117.76 ± 4.24
14 | QMPAHGLFPWCGLLLDTRTL (listed as Homo sapiens) [pep96] | 308.53 ± 3.61
15 | VLGLDDIHRA (listed as Homo sapiens) [pep13] | 14.01 ± 1.32
16 | WMPGTPRRLPRLPQRYWQMR (listed as Homo sapiens) [pep126] | 3362.29 ± 3.24
17 | LCSLCYGDMENKLFAGIRRD (listed as Homo sapiens) [pep92] | 19.91 ± 0.51
18 | GVPLGLPAPGARRRGGSASR (listed as Homo sapiens) [pep118] | 14.69 ± 0.33
19 | SLPLPKRPRRGAAPEPERTP (listed as Homo sapiens) [pep119] | 13.23 ± 0.64
20 | PALPSDFKTILD (listed as Homo sapiens) [pep106] | 12.45 ± 0.38
21 | SYLPNTVTDALRGSGAWGLL (listed as Homo sapiens) [pep56] | 28.61 ± 0.44
22 | SRPPRPWDTPCPPVYAETKH (listed as Homo sapiens) [pep123] | 18.03 ± 2.83
23 | YERARRPGLL (listed as Homo sapiens) [pep20] | 20.73 ± 2.45

Row | Sequence | cellular uptake, MFI (Mean Fluorescence Intensity)
24 | GASVLGLDDI (listed as Homo sapiens) [pep14] | 10.51 ± 3.71
25 | QETSPLRDAVVIEQSSSLNE (listed as Homo sapiens) [pep89] | 13.54 ± 0.75
26 | VRRYAVVQKAAHGEVRKAFK (VRRYAVVQKAAHGHVRKAFK; listed as Homo sapiens) [pep87] | 38.35 ± 2.27
27 | RPGLLGASVL (listed as Homo sapiens) [pep21] | 13.22 ± 1.67
28 | RRSPGVGCVPAAEHRLREEI (listed as Homo sapiens) [pep76] | 13.98 ± 0.11
29 | TKKFISLGKHAKLSLQELTW (listed as Homo sapiens) [pep132] | 26.39 ± 0.95
30 | SVLNYERARRPGLLG (listed as Homo sapiens) [pep3] | 18.23 ± 3.21
31 | PQDRLTEVIASIIKP (listed as Homo sapiens) [pep47] | 15.85 ± 1.03
32 | RRPGLLGAS (listed as Homo sapiens) [pep28] | 14.08 ± 3.11
33 | VARVLQRLCERGAKNVLAFG (listed as Homo sapiens) [pep54] | 388.45 ± 2.94
34 | ERARRPGL (listed as Homo sapiens) [pep32] | 11.98 ± 2.92
35 | FSVLNYERAR (listed as Homo sapiens) [pep18] | 18.7 ± 1.21
36 | AQCPYGVLLKTHCPLRAAVT (listed as Homo sapiens) [pep70] | 21.82 ± 1.76
37 | ARRPGLLGA (listed as Homo sapiens) [pep26] | 14.81 ± 1.77
38 | LRFIPKPDGLRPIVNMDYVV (listed as Homo sapiens) [pep81] | 29.69 ± 2.49
39 | VAQCLVCVPWDARPPPAAPS (listed as Homo sapiens) [pep110] | 22.04 ± 0.77
40 | THCPLRAAVTPAAGVCAREK (listed as Homo sapiens) [pep128] | 14.36 ± 1.21
41 | AAGPLPSEAVQWLCHQAFLL (listed as Homo sapiens) [pep103] | 126.88 ± 2.14
42 | ARRPGLLG (listed as Homo sapiens) [pep33] | 14.36 ± 1.63
43 | RPIVNMDYVVGARTFRREKR (listed as Homo sapiens) [pep139] | 29.95 ± 0.28
44 | NYERARRPGL (listed as Homo sapiens) [pep19] | 13.04 ± 3.41
45 | PGLLGASVL (listed as Homo sapiens) [pep27] | 9.89 ± 2.51
46 | RARRPGLL (listed as Homo sapiens) [pep35] | 15.54 ± 1.38
